pIC50: −log10 of the molar value. Where a name gives a salt, the structure may show the parent alone.
What was measured:
Target C = experiment: HiBiT protein abundance assay, Target C (K562 HiBiT knock-in cells); type: cell-based, human; details: 24 hours
In short: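 Protein abundance read by HiBiT lytic luminescence after 24 h compound exposure (37 °C) of knock-in K562 cells, 10000 cells/well in IMDM+1% FBS. Dosing: 10 points, 3-fold, top 10 μM final, ≤0.25% DMSO. Four-parameter logistic fit gave concentration reducing abundance to 50% of untreated control.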

HTT mRNA = experiment: Gene panel canonical junction qPCR assay, HTT CJ mRNA decrease; type: cell-based, human; details: Homo sapiens, canonical junction qPCR, read-out: HTT IC50 (decrease in CJ mRNA levels)
In short: (§1)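 A673 or K562 cells treated with compound; canonical exon-exon junction mRNA quantified by cDNA synthesis and RT-qPCR with junction-spanning primer/probe, normalized to GAPDH, GUSB or PPIA and DMSO (2^(−ΔΔCt)). Percent response from set ΔCt assay windows fitted to 4-parameter logistic; IC50 for CJ decrease.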

Target C mRNA = experiment: Gene panel canonical junction qPCR assay, Target C CJ mRNA decrease; type: cell-based; details: Homo sapiens, canonical junction qPCR, read-out: Target C IC50 (decrease in CJ mRNA levels)
In short: as §1

K562 cells = experiment: Cell Titer Glo 2.0 cell viability assay in K562 cells; details: 72 hours

## Cc1cnc2c(C(=O)Nc3cc(F)c4nc(C)cn4c3)ccc(N3CCC(N(C)C)CC3)c2n1 [Compound 208, 8-[4-(dimethylamino)piperidin-1-yl]-N-{8-fluoro-2-methylimidazo[1,2-a]pyridin-6-yl}-2-methylquinoxaline-5-carboxamide; bis(trifluoroacetic acid)]
Target C
  pIC50: 5.00 to 6.00
HTT mRNA
  pIC50: 5.00 to 6.00
Target C mRNA
  pIC50: < 5.00
K562 cells
  Viability: A (A represents <100 nM)

## Cc1cn2cc(NC(=O)c3ccc(N4CCNCC4)c4ccnnc34)nc(C)c2n1 [Compound 164, N-{2,8-dimethylimidazo[1,2-a]pyrazin-6-yl}-5-(piperazin-1-yl)cinnoline-8-carboxamide 2,2,2-trifluoroacetate]
Target C
  pIC50: < 5.00
HTT mRNA
  pIC50: < 5.00
Target C mRNA
  pIC50: < 5.00
K562 cells
  Viability: B (B represents 100-1000 nM)

## Cc1cn2cc(NC(=O)c3ccc(N4CCNCC4)c4ccnnc34)cc(C#N)c2n1 [Compound 167, N-{8-cyano-2-methylimidazo[1,2-a]pyridin-6-yl}-5-(piperazin-1-yl)cinnoline-8-carboxamide trifluoroacetic acid salt]
Target C
  pIC50: 5.00 to 6.00
HTT mRNA
  pIC50: 5.00 to 6.00
Target C mRNA
  pIC50: < 5.00
K562 cells
  Viability: B (B represents 100-1000 nM)

## Cc1cn2cc(NC(=O)c3ccc(C4CCNCC4)c4nccnc34)cc(F)c2n1 [Compound 371]
Target C
  pIC50: 6.00 to 7.00
HTT mRNA
  pIC50: 6.00 to 7.00
Target C mRNA
  pIC50: 5.00 to 6.00
K562 cells
  Viability: A (A represents <100 nM)

## COc1cnc2c(N3CCC(N(C)C)CC3)ccc(C(=O)Nc3cc(F)c4nc(C)cn4c3)c2n1 [Compound 206, 8-[4-(dimethylamino)piperidin-1-yl]-N-{8-fluoro-2-methylimidazo[1,2-a]pyridin-6-yl}-3-methoxyquinoxaline-5-carboxamide; trifluoroacetic acid]
Target C
  pIC50: 6.00 to 7.00
HTT mRNA
  pIC50: 6.00 to 7.00
Target C mRNA
  pIC50: 6.00 to 7.00
K562 cells
  Viability: B (B represents 100-1000 nM)

## COc1nc(NC(=O)c2ccc(N3CCNCC3)c3ccnnc23)cn2cc(C)nc12 [Compound 179, N-{8-methoxy-2-methylimidazo[1,2-a]pyrazin-6-yl}-5-(piperazin-1-yl)cinnoline-8-carboxamide]
Target C
  pIC50: < 5.00
HTT mRNA
  pIC50: 5.00 to 6.00
Target C mRNA
  pIC50: < 5.00
K562 cells
  Viability: B (B represents 100-1000 nM)

## Cc1cn2cc(NC(=O)c3ccc(N4CCN(C)[C@H](C)C4)c4ccnnc34)cc(F)c2n1 [Compound 149]
Target C
  pIC50: 5.00 to 6.00
HTT mRNA
  pIC50: 5.00 to 6.00
Target C mRNA
  pIC50: 5.00 to 6.00
K562 cells
  Viability: B (B represents 100-1000 nM)

## CN[C@@H]1CCN(c2ccc(C(=O)Nc3cc(F)c4nc(C)cn4c3)c3nccnc23)C1 (single isomer, unassigned) [Compound 193, N-{8-fluoro-2-methylimidazo[1,2-a]pyridin-6-yl}-8-[3-(methylamino)pyrrolidin-1-yl]quinoxaline-5-carboxamide]
Target C
  pIC50: 5.00 to 6.00
HTT mRNA
  pIC50: < 5.00
Target C mRNA
  pIC50: < 5.00
K562 cells
  Viability: A (A represents <100 nM)

## Cc1cn2cc(NC(=O)c3ccc(N4C[C@H]5C[C@@H]4C5N(C)C)c4ccnnc34)cc(F)c2n1 (stereo partly shown) [Compound 155]
Target C
  pIC50: < 5.00
HTT mRNA
  pIC50: < 5.00
Target C mRNA
  pIC50: < 5.00
K562 cells
  Viability: B (B represents 100-1000 nM)

## CCN1CCC(c2ccc(C(=O)Nc3cc(F)c4nc(C)cn4c3)c3nnccc23)CC1 [Compound 141]
Target C
  pIC50: 5.00 to 6.00
HTT mRNA
  pIC50: 5.00 to 6.00
Target C mRNA
  pIC50: 5.00 to 6.00
K562 cells
  Viability: C (C represents 1000-9999 nM)

## CN[C@H]1CCN(c2ccc(C(=O)Nc3cc(F)c4nc(C)cn4c3)c3nccnc23)C1 (single isomer, unassigned) [Compound 194, N-{8-fluoro-2-methylimidazo[1,2-a]pyridin-6-yl}-8-[3-(methylamino)pyrrolidin-1-yl]quinoxaline-5-carboxamide]
Target C
  pIC50: 6.00 to 7.00
HTT mRNA
  pIC50: 5.00 to 6.00
Target C mRNA
  pIC50: 5.00 to 6.00
K562 cells
  Viability: A (A represents <100 nM)

## Cc1cnc2c(N3CCC(N(C)C)CC3)ccc(C(=O)Nc3cc(F)c4nc(C)cn4c3)c2n1 [Compound 200, 8-[4-(dimethylamino)piperidin-1-yl]-N-{8-fluoro-2-methylimidazo[1,2-a]pyridin-6-yl}-3-methylquinoxaline-5-carboxamide]
Target C
  pIC50: 6.00 to 7.00
HTT mRNA
  pIC50: 6.00 to 7.00
Target C mRNA
  pIC50: 6.00 to 7.00
K562 cells
  Viability: B (B represents 100-1000 nM)

## COc1cnc2c(N3CCNCC3)ccc(C(=O)Nc3cc(F)c4nc(C)cn4c3)c2n1 [Compound 207, N-{8-fluoro-2-methylimidazo[1,2-a]pyridin-6-yl}-3-methoxy-8-(piperazin-1-yl)quinoxaline-5-carboxamide; bis(trifluoroacetic acid)]
Target C
  pIC50: 5.00 to 6.00
HTT mRNA
  pIC50: 6.00 to 7.00
Target C mRNA
  pIC50: < 5.00
K562 cells
  Viability: B (B represents 100-1000 nM)

## Cc1cn2cc(NC(=O)c3ccc(N4CC5(CNC5)C4)c4ccnnc34)cc(F)c2n1 [Compound 131]
Target C
  pIC50: 5.00 to 6.00
HTT mRNA
  pIC50: 5.00 to 6.00
Target C mRNA
  pIC50: 5.00 to 6.00
K562 cells
  Viability: B (B represents 100-1000 nM)

## Cc1cn2cc(NC(=O)c3ccc(N4CCNC5(CCOC5)C4)c4nccnc34)cc(F)c2n1 (stereo not shown) [Compound 373]
Target C
  pIC50: 5.00 to 6.00
HTT mRNA
  pIC50: < 5.00
Target C mRNA
  pIC50: < 5.00
K562 cells
  Viability: B (B represents 100-1000 nM)

## CC[C@H]1CN(c2ccc(C(=O)Nc3cc(F)c4nc(C)cn4c3)c3nnccc23)CCN1 [Compound 152]
Target C
  pIC50: < 5.00
HTT mRNA
  pIC50: 5.00 to 6.00
Target C mRNA
  pIC50: < 5.00
K562 cells
  Viability: B (B represents 100-1000 nM)

## Cc1cn2cc(NC(=O)c3ccc(N4C[C@@H](C)N[C@@H](C)C4)c4ccnnc34)cc(F)c2n1 [Compound 161, 5-(3,5-dimethylpiperazin-1-yl)-N-{8-fluoro-2-methylimidazo[1,2-a]pyridin-6-yl}cinnoline-8-carboxamide 2,2,2-trifluoroacetate]
Target C
  pIC50: 5.00 to 6.00
HTT mRNA
  pIC50: 5.00 to 6.00
Target C mRNA
  pIC50: 5.00 to 6.00
K562 cells
  Viability: B (B represents 100-1000 nM)

## COCCOc1ccc2c(N3CCNCC3)ccc(C(=O)Nc3cc(F)c4nc(C)cn4c3)c2n1 [Compound 173, N-{8-fluoro-2-methylimidazo[1,2-a]pyridin-6-yl}-2-(2-methoxyethoxy)-5-(piperazin-1-yl)quinoline-8-carboxamide]
Target C
  pIC50: < 5.00
HTT mRNA
  pIC50: < 5.00
Target C mRNA
  pIC50: 5.00 to 6.00
K562 cells
  Viability: B (B represents 100-1000 nM)

## Cc1cn2cc(NC(=O)c3ccc(N4CC(C)(C)NC(C)(C)C4)c4nccnc34)cc(F)c2n1 [Compound 219, N-{8-fluoro-2-methylimidazo[1,2-a]pyridin-6-yl}-8-(3,3,5,5-tetramethylpiperazin-1-yl)quinoxaline-5-carboxamide]
Target C
  pIC50: 5.00 to 6.00
HTT mRNA
  pIC50: 5.00 to 6.00
Target C mRNA
  pIC50: 5.00 to 6.00
K562 cells
  Viability: A (A represents <100 nM)

## Cc1cn2cc(NC(=O)c3ccc(N4CCNC5(CC5)C4)c4ccnnc34)cc(F)c2n1 [Compound 105]
Target C
  pIC50: 5.00 to 6.00
HTT mRNA
  pIC50: 5.00 to 6.00
Target C mRNA
  pIC50: < 5.00
K562 cells
  Viability: B (B represents 100-1000 nM)

## COc1cnc2c(C(=O)Nc3cc(F)c4nc(C)cn4c3)ccc(N3CCNCC3)c2n1 [Compound 225, N-{8-fluoro-2-methylimidazo[1,2-a]pyridin-6-yl}-2-methoxy-8-(piperazin-1-yl)quinoxaline-5-carboxamide]
Target C
  pIC50: < 5.00
HTT mRNA
  pIC50: < 5.00
Target C mRNA
  pIC50: < 5.00
K562 cells
  Viability: C (C represents 1000-9999 nM)

## CCNC1CCN(c2ccc(C(=O)Nc3cc(F)c4nc(C)sc4c3)c3nnccc23)CC1 [Compound 221, 5-[4-(ethylamino)piperidin-1-yl]-N-(4-fluoro-2-methyl-1,3-benzothiazol-6-yl)cinnoline-8-carboxamide]
Target C
  pIC50: 5.00 to 6.00
HTT mRNA
  pIC50: 5.00 to 6.00
Target C mRNA
  pIC50: 5.00 to 6.00
K562 cells
  Viability: B (B represents 100-1000 nM)

## Cc1ccc2c(N3C[C@@H](C)N[C@@H](C)C3)ccc(C(=O)Nc3cc(F)c4nc(C)cn4c3)c2n1 [Compound 214, 5-[(3R,5S)-3,5-dimethylpiperazin-1-yl]-N-{8-fluoro-2-methylimidazo[1,2-a]pyridin-6-yl}-2-methylquinoline-8-carboxamide]
Target C
  pIC50: 5.00 to 6.00
HTT mRNA
  pIC50: 6.00 to 7.00
Target C mRNA
  pIC50: 5.00 to 6.00
K562 cells
  Viability: B (B represents 100-1000 nM)

## Cc1cn2cc(NC(=O)c3ccc(N4CCN(C)[C@@H](C)C4)c4ccnnc34)cc(F)c2n1 [Compound 150]
Target C
  pIC50: 5.00 to 6.00
HTT mRNA
  pIC50: 5.00 to 6.00
Target C mRNA
  pIC50: 5.00 to 6.00
K562 cells
  Viability: B (B represents 100-1000 nM)

## Cc1cn2cc(NC(=O)c3ccc(N4CCNC(C)(C)C4)c4nccnc34)cc(F)c2n1 [Compound 220, 8-(3,3-dimethylpiperazin-1-yl)-N-{8-fluoro-2-methylimidazo[1,2-a]pyridin-6-yl}quinoxaline-5-carboxamide]
Target C
  pIC50: 5.00 to 6.00
HTT mRNA
  pIC50: 5.00 to 6.00
Target C mRNA
  pIC50: 5.00 to 6.00
K562 cells
  Viability: A (A represents <100 nM)

## Cc1cn2cc(NC(=O)c3ccc(N4CCN(C)CC4)c4ccnnc34)cc(F)c2n1 [Compound 127]
Target C
  pIC50: 5.00 to 6.00
HTT mRNA
  pIC50: 5.00 to 6.00
Target C mRNA
  pIC50: 5.00 to 6.00
K562 cells
  Viability: C (C represents 1000-9999 nM)

## Cc1c(O)c(NC(=O)c2ccc(N3CCNCC3)c3ccnnc23)cc2cn(C)nc12 [Compound 181, N-(6-hydroxy-2,7-dimethylindazol-5-yl)-5-(piperazin-1-yl)cinnoline-8-carboxamide]
Target C
  pIC50: < 5.00
HTT mRNA
  pIC50: < 5.00
Target C mRNA
  pIC50: < 5.00
K562 cells
  Viability: C (C represents 1000-9999 nM)

## Cc1cn2cc(NC(=O)c3ccc(N4C[C@@H](C)NC5(CC5)C4)c4nccnc34)cc(F)c2n1 [Compound 376]
Target C
  pIC50: < 5.00
HTT mRNA
  pIC50: < 5.00
Target C mRNA
  pIC50: < 5.00
K562 cells
  Viability: B (B represents 100-1000 nM)
